Experimental data reported in US20200221739A1, “METHOD FOR REMOVAL OF ANTIBIOTIC RESIDUES FROM FOOD PRODUCTS” (The King Abdulaziz City for Science and Technology, priority 2016, published 2020).

Assays:
[1] = Degradation of antibiotics in double distilled water by gamma radiation, UV-Vis absorption; assay type: physicochemical; conditions: 50 |iM in double distilled water, 7 kGy gamma radiation
Description: The three target antibiotics as mentioned above were dissolved in double distilled water to make desired concentrations (in 10 mL volume). […] UV-Vis absorption spectra of the studied antibiotics in solution were recorded before and after irradiation treatment at different doses.
With reference to FIG. 2A, the maximum absorption of doxycycline at 275 nm was plotted against the concentration.

E-coli = E-coli growth inhibition experiments; assay type: cell-based
Description: With reference to FIG. 12 (top panel), two control experiments with water were conducted.

[2] = Removal of amoxicillin spiked in water, milk, eggs and chicken meat by gamma radiation, HPLC; assay type: physicochemical; conditions: for Removal percentage: 7 kGy, average across 1, 10, 20 and 50 |iM, assuming 15% error
From the text: In all the example mentioned in the foregoing, the source of gamma radiation is a Cobalt-60 gamma rays source model Gamma Cell 220 from MDS Nordion, Canada. The source of gamma radiation was calibrated using aqueous ferrous sulfate (Fricke dosimetry) solution.
The desired concentration of amoxicillin was spiked in water, milk, eggs, and chicken meat. 20 |iL of spiked water samples before and post irradiation treatment was directly injected in HPLC. Amoxicillin spiked in milk, eggs, and chicken meat was extracted using acetonitrile. 2 mL (milk or eggs) or 2 g (chicken meat) of the spiked samples was mixed with 5 mL acetonitrile and shaken for 10 minutes following which the samples were centrifuged for 5 minutes at a speed of 3000 rpm. 5 mL of the supernatant was evaporated in a rotary-evaporation system and the antibiotic residue was dissolved in 2 mL of double distilled water. 20 |iL of the extracted samples was injected in HPLC.
Direct Uv-Vis measurements cannot be conducted to quantify the antibiotics in samples extracted from dairy or poultry products due to the significant chemical interference. FIG. 5 illustrates a comparison of HPLC signals of a range of amoxicillin concentration before and after irradiation with 7 kGy.
Removal percentage of amoxicillin in different samples with varied concentrations is reported by comparing the original concentrations with the corresponding post irradiation concentrations (i.e. before and after irradiation). FIG. 9 illustrates the average removal percentages for each sample type across the different concentration range (1, 10, 20, and 50 |iM), assuming 15% error in the observations. It was observed that there was 100% removal and decomposition of amoxicillin in water & milk samples and 80% removal of amoxicillin in eggs & chicken meat samples at a radiation dose of 7 kGy, within the permissible limits accepted by IAEA for food irradiation.

[3] = Degradation of amoxicillin by gamma radiation, 1H and 13C NMR; assay type: physicochemical; conditions: 5 mg/mL in water/D2O 1:1, 7 kGy
Description: Further, an additional confirmation of the degradation of amoxicillin was conducted using ^1H and ^13C NMR studies. Amoxicillin is dissolved in water and diluted at a ratio of 1:1 using D2O. A high concentration of amoxicillin (5 mg/mL) was used for this technique, with water as the NMR solvent. […] It is observed that the proton signals (at 4.5 to 4.8 ppm) of amoxicillin before irradiation are disappearing upon irradiation treatment. FIG. 11 illustrates the ^13C spectra of 5 mg/mL amoxicillin before and after irradiation treatment at 7 kGy for amoxicillin. Overall, the intensities of ^13C peaks are reduced (approximately 50%) after irradiation treatment indicating the decomposition and reduction in amoxicillin concentration in the sample.

CC1(C)S[C@@H]2[C@H](NC(=O)[C@H](N)c3ccc(O)cc3)C(=O)N2[C@H]1C(=O)O [amoxicillin]
Removal (decrease of UV-Vis absorption bands) upon gamma irradiation [1]: completely removed
Antimicrobial effect on E-coli growth (E-coli; amoxicillin 150 |iM irradiated at 7 kGy): complete loss of antimicrobial effect
Antimicrobial effect on E-coli growth (E-coli; non-irradiated amoxicillin sample): growth inhibition
Removal percentage ([2]; chicken meat samples): 80%
Removal percentage ([2]; eggs samples): 80%
Removal percentage ([2]; milk samples): 100%
Concentration of amoxicillin after irradiation (HPLC) ([2]; range of concentrations, after irradiation with 7 kGy): below the detection limit of HPLC
Removal percentage ([2]; water samples): 100%
Reduction of intensities of 13C peaks after irradiation treatment [3]: approximately 50%
